Experiment [1] has as its system myosin ATPase, Rabbit Psoas myofibrils. Nature of the experiment: Myofibril ATPase assay, rabbit psoas (skeletal) myofibrils. Format: biochemical. As to conditions: Rabbit Psoas Prep pCa 25 GEOM_MEAN; for Rabbit Psoas Y125 value (marked #): concentration required to increase myosin ATP-ase activity by 25%; for Rabbit Psoas EC25 (Y75 value): concentration required to reduce myosin ATP-ase activity by 25%.

The subject of experiment [2] is myosin ATPase, Porcine Atria myofibrils. Nature of the experiment: Myofibril ATPase assay, porcine atria myofibrils. Format: biochemical. As to conditions: Porcine Atria Prep pCa 25 GEOM_MEAN; for Porcine Atria EC25 (Y75 value): concentration required to reduce myosin ATP-ase activity by 25%.
For experiment [3], the target named is T1, myosin ATPase, Porcine Ventricle myofibrils (Sus scrofa, UniProt P79293).
T1 construct: Myofibrils from porcine cardiac muscle was isolated from the left ventricle of Yucatan minipigs; tissue Exemplar Genetics; host or cells: left ventricle of Yucatan minipigs, myofibrils
The experiment in a line: Myofibril ATPase assay, porcine ventricle myofibrils. Format: biochemical, porcine (Yucatan minipigs). The settings on record: concentration required to reduce myosin ATP-ase activity by 25%; Porcine Ventricle Prep pCa 25 GEOM_MEAN. In short, it runs like this:
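Myofibrils from Yucatan minipig left ventricle; ADP production coupled via PK-LDH to NADH loss, read kinetically at 340 nm every 1.5–2 min for 75 min in PIPES/MgCl2 pH 7.0 buffer. Slopes normalized to vehicle and fit to 4-parameter logistic; values are concentrations giving 75% (inhibition) or 125% (activation) of vehicle activity.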

T1 sequence (P79293 whole entry): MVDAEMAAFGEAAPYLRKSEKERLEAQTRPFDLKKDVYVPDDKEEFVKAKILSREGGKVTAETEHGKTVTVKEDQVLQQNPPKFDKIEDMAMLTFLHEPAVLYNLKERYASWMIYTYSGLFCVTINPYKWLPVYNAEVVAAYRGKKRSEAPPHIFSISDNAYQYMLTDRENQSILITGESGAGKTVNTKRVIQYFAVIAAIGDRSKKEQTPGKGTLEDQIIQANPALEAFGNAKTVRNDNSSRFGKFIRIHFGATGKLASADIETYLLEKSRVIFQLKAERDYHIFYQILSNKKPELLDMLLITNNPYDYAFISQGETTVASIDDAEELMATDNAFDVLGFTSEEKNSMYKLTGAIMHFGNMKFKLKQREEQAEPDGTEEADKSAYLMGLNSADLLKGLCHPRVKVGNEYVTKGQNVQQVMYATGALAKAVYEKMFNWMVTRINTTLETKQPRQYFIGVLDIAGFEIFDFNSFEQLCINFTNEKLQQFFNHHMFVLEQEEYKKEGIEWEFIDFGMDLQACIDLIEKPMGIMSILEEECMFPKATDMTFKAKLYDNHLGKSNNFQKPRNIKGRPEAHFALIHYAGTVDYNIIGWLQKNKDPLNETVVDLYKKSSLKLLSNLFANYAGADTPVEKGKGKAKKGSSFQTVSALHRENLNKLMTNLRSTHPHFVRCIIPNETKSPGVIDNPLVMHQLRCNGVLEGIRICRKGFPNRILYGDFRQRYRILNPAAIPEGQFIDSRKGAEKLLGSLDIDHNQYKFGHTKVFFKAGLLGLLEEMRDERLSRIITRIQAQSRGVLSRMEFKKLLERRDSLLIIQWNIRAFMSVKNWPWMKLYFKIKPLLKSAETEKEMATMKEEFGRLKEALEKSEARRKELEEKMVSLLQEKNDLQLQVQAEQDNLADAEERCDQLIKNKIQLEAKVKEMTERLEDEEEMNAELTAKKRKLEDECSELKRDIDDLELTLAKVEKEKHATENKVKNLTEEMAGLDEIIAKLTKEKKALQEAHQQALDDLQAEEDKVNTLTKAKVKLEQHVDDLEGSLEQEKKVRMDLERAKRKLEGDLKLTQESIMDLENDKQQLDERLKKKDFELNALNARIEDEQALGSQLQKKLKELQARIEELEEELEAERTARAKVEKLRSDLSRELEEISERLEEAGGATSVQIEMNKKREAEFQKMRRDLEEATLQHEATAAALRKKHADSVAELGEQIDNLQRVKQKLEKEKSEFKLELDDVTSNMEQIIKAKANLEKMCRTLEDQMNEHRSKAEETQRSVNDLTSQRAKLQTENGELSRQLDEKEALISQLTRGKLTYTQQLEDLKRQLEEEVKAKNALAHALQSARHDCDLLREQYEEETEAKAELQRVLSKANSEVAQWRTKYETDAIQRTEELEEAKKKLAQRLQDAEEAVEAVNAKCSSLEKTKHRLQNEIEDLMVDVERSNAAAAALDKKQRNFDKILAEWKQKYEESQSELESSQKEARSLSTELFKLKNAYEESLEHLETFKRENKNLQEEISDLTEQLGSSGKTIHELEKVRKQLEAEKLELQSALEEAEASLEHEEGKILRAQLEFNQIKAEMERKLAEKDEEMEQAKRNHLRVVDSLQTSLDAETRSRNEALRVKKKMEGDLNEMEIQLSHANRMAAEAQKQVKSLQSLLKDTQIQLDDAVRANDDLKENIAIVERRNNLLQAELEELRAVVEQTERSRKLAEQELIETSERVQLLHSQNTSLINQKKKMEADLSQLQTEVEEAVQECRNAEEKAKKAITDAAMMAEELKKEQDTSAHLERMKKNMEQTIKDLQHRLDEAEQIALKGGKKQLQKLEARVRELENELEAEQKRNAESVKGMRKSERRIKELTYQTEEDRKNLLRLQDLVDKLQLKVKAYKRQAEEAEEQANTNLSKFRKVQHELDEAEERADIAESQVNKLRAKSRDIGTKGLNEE

Consider `C[C@H](NC(=O)C(Cc1ccccc1)n1c(=O)[nH]c2ccccc2c1=O)c1ccc(F)cc1F` (single isomer, unassigned) [Compound 504], for which, in experiment [1], the “Rabbit Psoas Y125 value (marked #)” value was 3.28^#^ μM. Moreover, the “Porcine Atria EC25 (Y75 value)” value in experiment [2] was determined as 20.67 µM. Also, the “Porcine Ventricle EC25 (Y75 value)” value in experiment [3] stood at 43.467 µM.
As for `C[C@H](NC(=O)C(c1cccnc1)n1c(=O)[nH]c2ccccc2c1=O)c1ccc(F)cc1F` (single isomer, unassigned) [Compound 508], the “Rabbit Psoas EC25 (Y75 value)” value in experiment [1] was found to be 100 µM. Moreover, the “Porcine Atria EC25 (Y75 value)” value in experiment [2] was determined as 100 µM. The “Porcine Ventricle EC25 (Y75 value)” value in experiment [3] amounted to 100 µM.
Take `CCC(C(=O)N[C@@H](C)c1ccc(F)cc1F)n1c(=O)[nH]c2ccccc2c1=O` (single isomer, unassigned) [Compound 509]: the “Rabbit Psoas EC25 (Y75 value)” value in experiment [1] came out at 100 µM. For the same compound, the “Porcine Atria EC25 (Y75 value)” value in experiment [2] came to 100 µM. Also, the “Porcine Ventricle EC25 (Y75 value)” value in experiment [3] stood at 100 µM.
In the case of `C[C@H](NC(=O)C(c1ccccc1)n1c(=O)[nH]c2ccccc2c1=O)c1ccc(F)cc1F` (single isomer, unassigned) [Compound 510], the “Rabbit Psoas EC25 (Y75 value)” value in experiment [1] was 100 µM. The “Porcine Atria EC25 (Y75 value)” value in experiment [2] was 100 µM. Also, in experiment [3], the “Porcine Ventricle EC25 (Y75 value)” value is 100 µM.
As for `C[C@H](NC(=O)C(CO)n1c(=O)[nH]c2ccccc2c1=O)c1ccc(F)cc1F` (single isomer, unassigned) [Compound 511], the “Rabbit Psoas EC25 (Y75 value)” value in experiment [1] came to 35.849 µM. In experiment [2], the “Porcine Atria EC25 (Y75 value)” value came out at 2.118 µM. For the same compound, the “Porcine Ventricle EC25 (Y75 value)” value in experiment [3] came out at 100 µM.
Consider `CC(C)CC(C(=O)N[C@@H](C)c1ccc(F)cc1F)n1c(=O)[nH]c2ccccc2c1=O` (single isomer, unassigned) [Compound 512], for which, in experiment [1], the “Rabbit Psoas Y125 value (marked #)” value was 23.575^#^ μM. The “Porcine Atria Y125 value (marked #)” value in experiment [2] (concentration required to increase myosin ATP-ase activity by 25%) is 30.14^# μM. Moreover, the “Porcine Ventricle EC25 (Y75 value)” value in experiment [3] was determined as 100 µM.
Consider `CC(C)C(C(=O)N[C@@H](C)c1ccc(F)cc1F)n1c(=O)[nH]c2ccccc2c1=O` (single isomer, unassigned) [Compound 513], for which the “Rabbit Psoas EC25 (Y75 value)” value in experiment [1] amounted to 100 µM. Also, the “Porcine Atria EC25 (Y75 value)” value in experiment [2] is 100 µM. Moreover, in experiment [3], the “Porcine Ventricle EC25 (Y75 value)” value came out at 100 µM.
Regarding `C[C@H](NC(=O)Cn1c(=O)[nH]c2ccccc2c1=O)c1cc(C(F)(F)F)cc(C(F)(F)F)c1` (single isomer, unassigned) [Compound 517], the “Rabbit Psoas EC25 (Y75 value)” value in experiment [1] is 100 µM. The “Porcine Atria EC25 (Y75 value)” value in experiment [2] was 100 µM. In addition, the “Porcine Ventricle EC25 (Y75 value)” value in experiment [3] worked out at 100 µM.
Take `C[C@@H](NC(=O)Cn1c(=O)[nH]c2ccccc2c1=O)c1ccc(Cl)cc1` (single isomer, unassigned) [Compound 526]: in experiment [1], the “Rabbit Psoas EC25 (Y75 value)” value stood at 100 µM. Also, the “Porcine Atria EC25 (Y75 value)” value in experiment [2] was determined as 100 µM. The “Porcine Ventricle EC25 (Y75 value)” value in experiment [3] was 100 µM.
As to `COc1ccc([C@@H](C)NC(=O)Cn2c(=O)[nH]c3ccccc3c2=O)cc1` (single isomer, unassigned) [Compound 528], the “Rabbit Psoas EC25 (Y75 value)” value in experiment [1] was 100 µM. Further, the “Porcine Atria EC25 (Y75 value)” value in experiment [2] was 100 µM. Further, the “Porcine Ventricle EC25 (Y75 value)” value in experiment [3] turned out to be 100 µM.
With `COc1ccc([C@H](C)NC(=O)Cn2c(=O)[nH]c3ccccc3c2=O)cc1` (single isomer, unassigned) [Compound 529], in experiment [1], the “Rabbit Psoas EC25 (Y75 value)” value worked out at 100 µM. Moreover, in experiment [2], the “Porcine Atria EC25 (Y75 value)” value was 100 µM. The “Porcine Ventricle EC25 (Y75 value)” value in experiment [3] came out at 100 µM.
`C[C@H](NC(=O)Cn1c(=O)[nH]c2ccccc2c1=O)c1ccc(Cl)cc1` (single isomer, unassigned) [Compound 530]: in experiment [1], the “Rabbit Psoas EC25 (Y75 value)” value worked out at 3.24 µM. In experiment [2], the “Porcine Atria EC25 (Y75 value)” value is 0.445 µM. Besides, in experiment [3], the “Porcine Ventricle EC25 (Y75 value)” value is 4.63 µM.
As for `C[C@@H](NC(=O)Cn1c(=O)[nH]c2ccccc2c1=O)c1ccccc1` (single isomer, unassigned) [Compound 533], the “Rabbit Psoas EC25 (Y75 value)” value in experiment [1] amounted to 100 µM. In addition, in experiment [2], the “Porcine Atria EC25 (Y75 value)” value worked out at 100 µM. Moreover, the “Porcine Ventricle EC25 (Y75 value)” value in experiment [3] amounted to 100 µM.
Take `C[C@H](NC(=O)Cn1c(=O)[nH]c2ccccc2c1=O)c1ccccc1` (single isomer, unassigned) [Compound 534]: in experiment [1], the “Rabbit Psoas EC25 (Y75 value)” value was determined as 100 µM. In addition, the “Porcine Atria EC25 (Y75 value)” value in experiment [2] came to 100 µM. In addition, the “Porcine Ventricle EC25 (Y75 value)” value in experiment [3] is 100 µM.
`Cc1c(F)ccc2[nH]c(=O)n(CC(=O)N[C@@H]3COc4cc(C#N)cnc43)c(=O)c12` (single isomer, unassigned) [Compound 701]: the “Rabbit Psoas EC25 (Y75 value)” value in experiment [1] is 0.023 µM. Besides, the “Porcine Atria EC25 (Y75 value)” value in experiment [2] came out at 0.07 µM. Besides, the “Porcine Ventricle EC25 (Y75 value)” value in experiment [3] came out at 0.075 µM.
The like results for `Cc1c(F)ccc2[nH]c(=O)n(CC(=O)N[C@H]3COc4cc(C#N)cnc43)c(=O)c12` (single isomer, unassigned) [Compound 702] were, in that order, 4.019 µM, 3.03 µM and 7.299 µM.
For `Cc1c(F)ccc2[nH]c(=O)n(CC(=O)N[C@H](C)c3ncc(C#N)cn3)c(=O)c12` (single isomer, unassigned) [Compound 3005], the “Rabbit Psoas EC25 (Y75 value)” value in experiment [1] was determined as 2.34 µM. In experiment [2], the “Porcine Atria EC25 (Y75 value)” value worked out at 2.78 µM. Also, the “Porcine Ventricle EC25 (Y75 value)” value in experiment [3] amounted to 11.35 µM.
With `Cc1c(F)ccc2[nH]c(=O)n(CC(=O)N[C@H](C)c3ccc(C#N)cn3)c(=O)c12` (single isomer, unassigned) [Compound 3009], in experiment [1], the “Rabbit Psoas EC25 (Y75 value)” value came to 0.06 µM. Further, in experiment [2], the “Porcine Atria EC25 (Y75 value)” value was determined as 0.10 µM. The “Porcine Ventricle EC25 (Y75 value)” value in experiment [3] amounted to 0.25 µM.
On to `Cc1c(F)ccc2[nH]c(=O)n(CC(=O)N[C@@H](C)c3ccc(C#N)cn3)c(=O)c12` (single isomer, unassigned) [Compound 3010], for which the “Rabbit Psoas EC25 (Y75 value)” value in experiment [1] stood at 1.59 µM. Further, the “Porcine Atria EC25 (Y75 value)” value in experiment [2] came out at 1.97 µM. Moreover, the “Porcine Ventricle EC25 (Y75 value)” value in experiment [3] was found to be 1.90 µM.
For `C[C@@H](NC(=O)C1(n2c(=O)[nH]c3ccc(F)c(F)c3c2=O)CC1)c1ncc(C#N)cc1F` (single isomer, unassigned) [Compound 3011], in experiment [1], the “Rabbit Psoas EC25 (Y75 value)” value amounted to 4.77 µM. In addition, the “Porcine Atria EC25 (Y75 value)” value in experiment [2] amounted to 0.42 µM. Further, the “Porcine Ventricle EC25 (Y75 value)” value in experiment [3] came to 13.07 µM.
`C[C@H](NC(=O)C1(n2c(=O)[nH]c3ccc(F)c(F)c3c2=O)CC1)c1ncc(C#N)cc1F` (single isomer, unassigned) [Compound 3013]: the “Rabbit Psoas EC25 (Y75 value)” value in experiment [1] amounted to 0.40 µM. In experiment [2], the “Porcine Atria EC25 (Y75 value)” value came to 0.19 µM. In experiment [3], the “Porcine Ventricle EC25 (Y75 value)” value was determined as 1.04 µM.
For `C[C@@H](NC(=O)C1(n2c(=O)[nH]c3cccc(C#N)c3c2=O)CC1)c1ncc(C#N)cc1F` (single isomer, unassigned) [Compound 3014], the “Rabbit Psoas EC25 (Y75 value)” value in experiment [1] stood at 100.00 µM. Further, the “Porcine Atria EC25 (Y75 value)” value in experiment [2] is 100.00 µM. Moreover, the “Porcine Ventricle EC25 (Y75 value)” value in experiment [3] was 100.00 µM.
`C[C@H](NC(=O)C1(n2c(=O)[nH]c3cccc(C#N)c3c2=O)CC1)c1ncc(C#N)cc1F` (single isomer, unassigned) [Compound 3015]: the “Rabbit Psoas EC25 (Y75 value)” value in experiment [1] worked out at 0.89 µM. In experiment [2], the “Porcine Atria EC25 (Y75 value)” value was 1.89 µM. In addition, the “Porcine Ventricle EC25 (Y75 value)” value in experiment [3] stood at 10.96 µM.
Consider `Cc1c(F)ccc2[nH]c(=O)n(CC(=O)N[C@H]3CCc4cc(C#N)cnc43)c(=O)c12` [Compound 10, (S)-N-(3-cyano-6,7-dihydro-5H-cyclopenta[b]pyridin-7-yl)-2-(6-fluoro-5-methyl-2,4-dioxo-1,4-dihydroquinazolin-3(2H)-yl)acetamide], for which the “Rabbit Psoas EC25 (Y75 value)” value in experiment [1] amounted to 100 µM. For the same compound, the “Porcine Atria EC25 (Y75 value)” value in experiment [2] came out at 100 µM. In addition, the “Porcine Ventricle EC25 (Y75 value)” value in experiment [3] worked out at 100 µM.
On to `Cc1nccc2[nH]c(=O)n(CC(=O)N[C@@H](C)c3ncc(C#N)cc3F)c(=O)c12` [Compound 20, (S)-N-(1-(5-cyano-3-fluoropyridin-2-yl)ethyl)-2-(5-methyl-2,4-dioxo-1,4-dihydropyrido[4,3-d]pyrimidin-3(2H)-yl)acetamide], for which the “Rabbit Psoas EC25 (Y75 value)” value in experiment [1] was 0.799 µM. In experiment [2], the “Porcine Atria EC25 (Y75 value)” value came to 2.095 µM. Besides, in experiment [3], the “Porcine Ventricle EC25 (Y75 value)” value was determined as 7.141 µM.
Regarding `C[C@H](NC(=O)[C@H](Cc1ccccc1)n1c(=O)[nH]c2cccc(O)c2c1=O)c1ccc(F)cc1F` [Compound 33, (S)-N-((S)-1-(2,4-difluorophenyl)ethyl)-2-(5-hydroxy-2,4-dioxo-1,4-dihydroquinazolin-3(2H)-yl)-3-phenylpropanamide], the “Rabbit Psoas Y125 value (marked #)” value in experiment [1] is 51.2^# μM. Besides, in experiment [2], the “Porcine Atria EC25 (Y75 value)” value was 100 µM. The compound further registered a Porcine Ventricle EC25 (Y75 value) in experiment [3] of 100 µM.
As for `C[C@H](NC(=O)[C@@H](Cc1ccccc1)n1c(=O)[nH]c2cccc(O)c2c1=O)c1ccc(F)cc1F` [Compound 34, (R)-N-((S)-1-(2,4-difluorophenyl)ethyl)-2-(5-hydroxy-2,4-dioxo-1,4-dihydroquinazolin-3(2H)-yl)-3-phenylpropanamide], the “Rabbit Psoas Y125 value (marked #)” value in experiment [1] is 0.85^#^ μM. In addition, the “Porcine Atria EC25 (Y75 value)” value in experiment [2] worked out at 48.85 µM. In addition, in experiment [3], the “Porcine Ventricle EC25 (Y75 value)” value came out at 45.37 µM.

For the origin of these results see patent publication US12559464B2, “Quinazolinone dione compounds and uses thereof” (Edgewise Therapeutics, Inc., priority 2023, dated 2026).
